{
  "source": "patent US12285012B2",
  "about": "“Compositions comprising pyridine carboxylate herbicides with acetolactate synthase (ALS) inhibitor herbicides” (Corteva Agriscience LLC, priority 2018, dated 2025)",
  "key": {"[1]": {"system": "large crabgrass (DIGSA, Digitaria sanguinalis)", "assay": "Greenhouse postemergence herbicidal effect", "type": "in vivo", "details": "for Obs % visual injury: DIGSA", "description": "(§1) Seeds of the desired test plant species were planted in a 90:10% v/v (volume/volume) mixture of PRO-MIX® BX (Premier Tech Horticulture, Quakertown, PA, USA) and PROFILE® GREENS GRADE™ (Profile Products LLC, Buffalo Grove, IL, USA) planting mixture, which typically has a pH of 5.2 to 6.2 and an organic matter content of at least 50 percent, in plastic pots with a surface area of 103.2 square centimeters (cm^2). In some aspects, to ensure good germination and healthy plants, a fungicide treatment and/or other chemical or physical treatment was applied. The plants were grown for 7-36 days (d) in a greenhouse with an approximate 14-hour (h) photo-period which was maintained at about 23° C. during the day and 22° C. during the night. Nutrients and water were added on a regular basis and supplemental lighting was provided with overhead metal halide 1000-Watt lamps as necessary. The plants were employed for testing when they reached the second or third true leaf stage.\n(§2) Emulsifiable concentrates of each of each pyridine carboxylate herbicide (Compound A or Compound B) were prepared at 100 grams acid equivalent per liter (g ae/L). The emulsifiable concentrates also included a safener, cloquintocet-mexyl, at 120 grams active ingredient per liter (g ai/L), unless otherwise noted below. An aliquot of each emulsifiable concentrate was placed in a 25 mL glass vial and diluted with an aqueous mixture of 1.25% (v/v) ACTIROB® B esterified rapeseed oil (Bayer Crop Science, Research Triangle Park, NC, USA) or MSO® Concentrate with LECI-TECH® methylated soybean oil (Loveland Products, Loveland, CO, USA) to obtain concentrated stock solutions at the highest application rate for each herbicide, based upon a 12 milliliter (mL) application volume at a rate of 187 liters per hectare (L/ha). The concentrated stock solutions were further diluted with an aqueous mixture of 1.25% v/v ACTIROB® B or MSO® Concentrate with LECI-TECH® to obtain stock solutions at reduced application rates for each herbicide. Spray solutions of the herbicide combinations (Compound A or Compound B plus ALS herbicide) were prepared by adding weighed amounts or aliquots of the ALS herbicides to the stock solutions of Compound A or Compound B to form 12-mL spray solutions in two- or three-way combinations.\n(§3) The spray solutions were applied to the plant material with an overhead Mandel track sprayer equipped with 8002E nozzles calibrated to deliver 187 L/ha over an application area of 0.503 square meters (m^2) at a spray height of 18 inches (43 centimeters (cm)) above the average plant canopy. Control plants were sprayed in the same manner with the solvent blank. All pyridine carboxylate herbicide (component a) application rates are given as “g ae/ha” and all ALS inhibitor (component b) application rates are given as “g ai/ha.”\n(§4) The treated plants and control plants were placed in a greenhouse as described above and watered by sub-irrigation to prevent wash-off of the test compounds. After 20-22 d, the condition of the test plants as compared with that of the control plants was determined visually and scored on a scale of 0 to 100 percent where 0 corresponds to no injury and 100 corresponds to complete kill."}, "[2]": {"system": "broad-leaf dock (RUMOB, Rumex obtusifolius)", "assay": "Greenhouse postemergence herbicidal effect", "type": "in vivo", "details": "for Obs % visual injury: RUMOB", "description": "as §1, §2, §3, §4"}, "[3]": {"system": "common sunflower (HELAN, Helianthus annuus)", "assay": "Greenhouse postemergence herbicidal effect", "type": "in vivo", "description": "as §1, §2, §3, §4"}, "[4]": {"system": "soybean (GLXMA, Glycine max)", "assay": "Greenhouse postemergence herbicidal effect", "type": "in vivo", "description": "as §1, §2, §3, §4"}, "[5]": {"system": "ivyleaf morningglory (IPOHE, Ipomoea hederacea)", "assay": "Greenhouse postemergence herbicidal effect", "type": "in vivo", "description": "as §1, §2, §3, §4"}, "[6]": {"system": "velvetleaf (ABUTH, Abutilon theophrasti)", "assay": "Greenhouse postemergence herbicidal effect", "type": "in vivo", "description": "as §1, §2, §3, §4"}, "winter barley (HORVW)": {"system": "winter barley (HORVW)", "assay": "Greenhouse postemergence crop phytotoxicity", "type": "in vivo, Hordeum vulgare", "description": "as §1\nas §2, with “combinations. […]” for “combinations.”\nas §4"}, "[7]": {"system": "rice (ORYSA, Oryza sativa)", "assay": "Greenhouse postemergence crop phytotoxicity", "type": "in vivo", "details": "Compound A 10 g/ha; safener mefenpyr-diethyl", "protocol": "as §1, with “In some aspects, to ensure good germination and healthy plants, a fungicide treatment and/or other chemical or physical treatment was applied.” left out\nas §2, with “combinations. […]” for “combinations.”\nas §4"}, "maize (ZEAMX, Zea mays)": {"system": "maize (ZEAMX, Zea mays)", "assay": "Greenhouse postemergence crop phytotoxicity", "type": "in vivo", "details": "Compound A 10 g/ha; safener mefenpyr-diethyl", "protocol": "as §1, with “In some aspects, to ensure good germination and healthy plants, a fungicide treatment and/or other chemical or physical treatment was applied.” left out\nas §2, with “combinations. […]” for “combinations.”\nas §4"}, "[8]": {"system": "ivyleaf speedwell (VERHE, Veronica hederifolia)", "assay": "Greenhouse postemergence herbicidal effect", "type": "in vivo", "outline": "(§5)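 Injury was rated visually after 20-22 d on a 0 (none) to 100% (complete kill) scale relative to solvent-sprayed controls, with sub-irrigation to avoid wash-off. Rates were given in g ae/ha or g ai/ha depending on component.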"}, "[9]": {"system": "shepherd's purse (CAPBP, Capsella bursa-pastoris)", "assay": "Greenhouse postemergence herbicidal effect", "type": "in vivo", "outline": "as §5"}, "[10]": {"system": "R-PAPRH = Papaver rhoeas (corn poppy), herbicide-resistant", "assay": "Greenhouse postemergence herbicidal effect", "type": "in vivo", "outline": "as §5"}, "[11]": {"system": "purple deadnettle (LAMPU, Lamium purpureum)", "assay": "Greenhouse postemergence herbicidal effect", "type": "in vivo", "outline": "as §5"}, "[12]": {"details": "Compound A 10 g/ha, safener mefenpyr-diethyl"}},
  "data": [
    {"smiles": "N#CCOC(=O)c1nc(-c2ccc3cc[nH]c3c2F)c(F)c(N)c1Cl", "note": "[Compound A, cyanomethyl 4-amino-3-chloro-5-fluoro-6-(7-fluoro-1H-indol-6-yl)pyridine-2-carboxylate]", "values": [
      {"measurement": "% visual injury, Obs", "setting": "[1]; 10 g/ha", "result": 0, "unit": "%"},
      {"measurement": "% visual injury, Obs", "setting": "[1]; [12]", "result": 10, "unit": "%"},
      {"measurement": "DIGSA % visual injury Obs", "setting": "[1]; [12]", "result": 10, "unit": "%"},
      {"measurement": "% visual injury, Obs", "setting": "[2]; [12]", "result": 20, "unit": "%"},
      {"measurement": "RUMOB % visual injury Obs", "setting": "[2]; [12]", "result": 20, "unit": "%"},
      {"measurement": "% visual injury", "setting": "[3]; Compound A 10 g/ha", "result": 89, "unit": "%"},
      {"measurement": "% visual injury, Obs", "setting": "[3]; [12]", "result": 98, "unit": "%"},
      {"measurement": "HELAN % visual injury Obs", "setting": "[3]; [12]", "result": 98, "unit": "%"},
      {"measurement": "% visual injury, Obs", "setting": "[4]; [12]", "result": 95, "unit": "%"},
      {"measurement": "GLXMA % visual injury Obs", "setting": "[4]; [12]", "result": 95, "unit": "%"},
      {"measurement": "% visual injury", "setting": "[5]; Compound A 10 g/ha", "result": 25, "unit": "%"},
      {"measurement": "% visual injury, Obs", "setting": "[5]; [12]", "result": 5, "unit": "%"},
      {"measurement": "IPOHE % visual injury Obs", "setting": "[5]; [12]", "result": 5, "unit": "%"},
      {"measurement": "% visual injury, Obs", "setting": "[6]; 10 g/ha", "result": 48, "unit": "%"},
      {"measurement": "% visual injury, Obs", "setting": "[6]; [12]", "result": 73, "unit": "%"},
      {"measurement": "ABUTH % visual injury Obs", "setting": "[6]; [12]", "result": 73, "unit": "%"},
      {"measurement": "% visual injury", "setting": "winter barley (HORVW); Compound A 10 g/ha", "result": 0, "unit": "%"},
      {"measurement": "% visual injury", "setting": "winter barley (HORVW); Compound A 15 g/ha", "result": 0, "unit": "%"},
      {"measurement": "% visual injury, Obs", "setting": "[7]", "result": 5, "unit": "%"},
      {"measurement": "ORYSA % visual injury Obs", "setting": "[7]", "result": 5, "unit": "%"},
      {"measurement": "% visual injury, Obs", "setting": "maize (ZEAMX, Zea mays)", "result": 5, "unit": "%"},
      {"measurement": "ZEAMX % visual injury Obs", "setting": "maize (ZEAMX, Zea mays)", "result": 5, "unit": "%"},
      {"measurement": "% visual injury", "setting": "[8]; Compound A 10 g/ha", "result": 80, "unit": "%"},
      {"measurement": "% visual injury", "setting": "[8]; Compound A 15 g/ha", "result": 80, "unit": "%"},
      {"measurement": "% visual injury", "setting": "[9]; Compound A 10 g/ha", "result": 70, "unit": "%"},
      {"measurement": "% visual injury", "setting": "[9]; Compound A 15 g/ha", "result": 80, "unit": "%"},
      {"measurement": "% visual injury", "setting": "[10]; Compound A 10 g/ha", "result": 93, "unit": "%"},
      {"measurement": "% visual injury", "setting": "[10]; Compound A 15 g/ha", "result": 93, "unit": "%"},
      {"measurement": "% visual injury", "setting": "[11]; Compound A 10 g/ha", "result": 75, "unit": "%"},
      {"measurement": "% visual injury", "setting": "[11]; Compound A 15 g/ha", "result": 75, "unit": "%"}
    ]},
    {"smiles": "C#CCOC(=O)c1nc(-c2ccc3cc[nH]c3c2F)c(F)c(N)c1Cl", "note": "[Compound B, propargyl 4-amino-3-chloro-5-fluoro-6-(7-fluoro-1H-indol-6-yl)pyridine-2-carboxylate]", "values": [
      {"measurement": "Obs % visual injury", "setting": "[1]; Compound B 5 g/ha", "result": 50, "unit": "%"},
      {"measurement": "Obs % visual injury", "setting": "[1]; Compound B 10 g/ha", "result": 63, "unit": "%"},
      {"measurement": "% visual injury, Obs", "setting": "[2]; 10 g/ha", "result": 15, "unit": "%"},
      {"measurement": "Obs % visual injury", "setting": "[2]; Compound B 5 g/ha", "result": 23, "unit": "%"},
      {"measurement": "Obs % visual injury", "setting": "[2]; Compound B 10 g/ha", "result": 18, "unit": "%"},
      {"measurement": "% visual injury, Obs", "setting": "[3]; 10 g/ha", "result": 100, "unit": "%"},
      {"measurement": "% visual injury, Obs", "setting": "[4]; 10 g/ha", "result": 73, "unit": "%"},
      {"measurement": "% visual injury, Obs", "setting": "[5]; 10 g/ha", "result": 0, "unit": "%"},
      {"measurement": "% visual injury, Obs", "setting": "[6]; 10 g/ha", "result": 68, "unit": "%"}
    ]},
    {"smiles": "COc1ncc(F)c2nc(S(=O)(=O)Nc3c(F)cccc3F)nn12", "note": "[Florasulam, florasulam]", "values": [
      {"measurement": "% visual injury", "setting": "winter barley (HORVW); Florasulam 5 g/ha", "result": 0, "unit": "%"},
      {"measurement": "% visual injury", "setting": "[8]; Florasulam 5 g/ha", "result": 5, "unit": "%"},
      {"measurement": "% visual injury", "setting": "[9]; Florasulam 5 g/ha", "result": 80, "unit": "%"},
      {"measurement": "% visual injury", "setting": "[10]; Florasulam 5 g/ha", "result": 75, "unit": "%"},
      {"measurement": "% visual injury", "setting": "[11]; Florasulam 5 g/ha", "result": 10, "unit": "%"}
    ]}
  ]
}
